From US20140348819A1, “Methods of Treating Cancer” (Dana-Farber Cancer Institute, Inc., priority 2011, published 2014)

Test system: six V600E BRAF melanoma cell lines
Test: Screening of recombinant RTK ligands for ability to confer resistance to BRAFi (PLX4720) or MEKi (PD184352) (Table 4)
Type: cell-based, human
Design: ability of recombinant RTK ligand to confer resistance / ability of recombinant RTK ligand to confer resistance (screening value): scale not given here
Protocol: HGF is the only one that can substantially confer drug resistance to the cell lines.
The complexity of the tumor microenvironment is much greater than an in vitro co-culture system. Therefore, the inventors explored whether the activation of other RTKs could result in a similar resistance as that observed with the activation of MET. To this end, six V600E BRAF melanoma cell lines were tested for their resistance to either BRAFi (PLX4720) or MEKi (PD184352) after the addition of 22 RTK ligands that have the potential of activating almost all known RTKs. […] The activation of a selected subset of these RTKs was confirmed by western blotting and by high throughput tyrosine kinase phosphorylation profiling.

Collagen II
ability of recombinant RTK ligand to confer resistance (A2058, PD184352 - 1 uM, ligand 6.25 ng/ml): 0.97
ability of recombinant RTK ligand to confer resistance (A2058, PD184352 - 1 uM, ligand 25 ng/ml): 0.97
ability of recombinant RTK ligand to confer resistance (A2058, PD184352 - 1 uM, ligand 100 ng/ml): 0.99
ability of recombinant RTK ligand to confer resistance (A2058, PD184352 - 1 uM, ligand 400 ng/ml): 1.00
ability of recombinant RTK ligand to confer resistance (A2058, PD184352 - 1 uM, ligand 1600 ng/ml): 0.92
ability of recombinant RTK ligand to confer resistance (A2058, PLX4720 - 2 uM, ligand 6.25 ng/ml): 0.95
ability of recombinant RTK ligand to confer resistance (A2058, PLX4720 - 2 uM, ligand 25 ng/ml): 0.99
ability of recombinant RTK ligand to confer resistance (A2058, PLX4720 - 2 uM, ligand 100 ng/ml): 0.96
ability of recombinant RTK ligand to confer resistance (A2058, PLX4720 - 2 uM, ligand 400 ng/ml): 0.95
ability of recombinant RTK ligand to confer resistance (A2058, PLX4720 - 2 uM, ligand 1600 ng/ml): 0.96
ability of recombinant RTK ligand to confer resistance (C32, PD184352 - 1 uM, ligand 6.25 ng/ml): 0.99
ability of recombinant RTK ligand to confer resistance (C32, PD184352 - 1 uM, ligand 25 ng/ml): 1.03
ability of recombinant RTK ligand to confer resistance (C32, PD184352 - 1 uM, ligand 100 ng/ml): 1.06
ability of recombinant RTK ligand to confer resistance (C32, PD184352 - 1 uM, ligand 400 ng/ml): 1.18
ability of recombinant RTK ligand to confer resistance (C32, PD184352 - 1 uM, ligand 1600 ng/ml): 1.14
ability of recombinant RTK ligand to confer resistance (C32, PLX4720 - 2 uM, ligand 6.25 ng/ml): 1.03
ability of recombinant RTK ligand to confer resistance (C32, PLX4720 - 2 uM, ligand 25 ng/ml): 0.99
ability of recombinant RTK ligand to confer resistance (C32, PLX4720 - 2 uM, ligand 100 ng/ml): 0.99
ability of recombinant RTK ligand to confer resistance (C32, PLX4720 - 2 uM, ligand 400 ng/ml): 1.00
ability of recombinant RTK ligand to confer resistance (C32, PLX4720 - 2 uM, ligand 1600 ng/ml): 1.02
ability of recombinant RTK ligand to confer resistance (Colo 829, PD184352 - 1 uM, ligand 6.25 ng/ml): 0.95
ability of recombinant RTK ligand to confer resistance (Colo 829, PD184352 - 1 uM, ligand 25 ng/ml): 1.02
ability of recombinant RTK ligand to confer resistance (Colo 829, PD184352 - 1 uM, ligand 100 ng/ml): 1.04
ability of recombinant RTK ligand to confer resistance (Colo 829, PD184352 - 1 uM, ligand 400 ng/ml): 1.02
ability of recombinant RTK ligand to confer resistance (Colo 829, PD184352 - 1 uM, ligand 1600 ng/ml): 0.99
ability of recombinant RTK ligand to confer resistance (Colo 829, PLX4720 - 2 uM, ligand 6.25 ng/ml): 1.00
ability of recombinant RTK ligand to confer resistance (Colo 829, PLX4720 - 2 uM, ligand 25 ng/ml): 1.13
ability of recombinant RTK ligand to confer resistance (Colo 829, PLX4720 - 2 uM, ligand 100 ng/ml): 1.06
ability of recombinant RTK ligand to confer resistance (Colo 829, PLX4720 - 2 uM, ligand 400 ng/ml): 1.02
ability of recombinant RTK ligand to confer resistance (Colo 829, PLX4720 - 2 uM, ligand 1600 ng/ml): 0.98
ability of recombinant RTK ligand to confer resistance (G-361, PD184352 - 1 uM, ligand 6.25 ng/ml): 0.96
ability of recombinant RTK ligand to confer resistance (G-361, PD184352 - 1 uM, ligand 25 ng/ml): 1.00
ability of recombinant RTK ligand to confer resistance (G-361, PD184352 - 1 uM, ligand 100 ng/ml): 0.96
ability of recombinant RTK ligand to confer resistance (G-361, PD184352 - 1 uM, ligand 400 ng/ml): 1.01
ability of recombinant RTK ligand to confer resistance (G-361, PD184352 - 1 uM, ligand 1600 ng/ml): 1.03
ability of recombinant RTK ligand to confer resistance (G-361, PLX4720 - 2 uM, ligand 6.25 ng/ml): 0.97
ability of recombinant RTK ligand to confer resistance (G-361, PLX4720 - 2 uM, ligand 25 ng/ml): 0.91
ability of recombinant RTK ligand to confer resistance (G-361, PLX4720 - 2 uM, ligand 100 ng/ml): 0.92
ability of recombinant RTK ligand to confer resistance (G-361, PLX4720 - 2 uM, ligand 400 ng/ml): 0.96
ability of recombinant RTK ligand to confer resistance (G-361, PLX4720 - 2 uM, ligand 1600 ng/ml): 0.92
ability of recombinant RTK ligand to confer resistance (SK-MEL-5, PD184352 - 1 uM, ligand 6.25 ng/ml): 0.96
ability of recombinant RTK ligand to confer resistance (SK-MEL-5, PD184352 - 1 uM, ligand 25 ng/ml): 0.92
ability of recombinant RTK ligand to confer resistance (SK-MEL-5, PD184352 - 1 uM, ligand 100 ng/ml): 0.94
ability of recombinant RTK ligand to confer resistance (SK-MEL-5, PD184352 - 1 uM, ligand 400 ng/ml): 0.99
ability of recombinant RTK ligand to confer resistance (SK-MEL-5, PD184352 - 1 uM, ligand 1600 ng/ml): 0.94
ability of recombinant RTK ligand to confer resistance (SK-MEL-5, PLX4720 - 2 uM, ligand 6.25 ng/ml): 1.03
ability of recombinant RTK ligand to confer resistance (SK-MEL-5, PLX4720 - 2 uM, ligand 25 ng/ml): 1.10
ability of recombinant RTK ligand to confer resistance (SK-MEL-5, PLX4720 - 2 uM, ligand 100 ng/ml): 1.06
ability of recombinant RTK ligand to confer resistance (SK-MEL-5, PLX4720 - 2 uM, ligand 400 ng/ml): 1.00
ability of recombinant RTK ligand to confer resistance (SK-MEL-5, PLX4720 - 2 uM, ligand 1600 ng/ml): 1.08
ability of recombinant RTK ligand to confer resistance (SK-MEL-28, PD184352 - 1 uM, ligand 6.25 ng/ml): 0.98
ability of recombinant RTK ligand to confer resistance (SK-MEL-28, PD184352 - 1 uM, ligand 25 ng/ml): 1.10
ability of recombinant RTK ligand to confer resistance (SK-MEL-28, PD184352 - 1 uM, ligand 100 ng/ml): 0.98
ability of recombinant RTK ligand to confer resistance (SK-MEL-28, PD184352 - 1 uM, ligand 400 ng/ml): 0.94
ability of recombinant RTK ligand to confer resistance (SK-MEL-28, PD184352 - 1 uM, ligand 1600 ng/ml): 1.07
ability of recombinant RTK ligand to confer resistance (SK-MEL-28, PLX4720 - 2 uM, ligand 6.25 ng/ml): 0.94
ability of recombinant RTK ligand to confer resistance (SK-MEL-28, PLX4720 - 2 uM, ligand 25 ng/ml): 1.12
ability of recombinant RTK ligand to confer resistance (SK-MEL-28, PLX4720 - 2 uM, ligand 100 ng/ml): 0.98
ability of recombinant RTK ligand to confer resistance (SK-MEL-28, PLX4720 - 2 uM, ligand 400 ng/ml): 0.95
ability of recombinant RTK ligand to confer resistance (SK-MEL-28, PLX4720 - 2 uM, ligand 1600 ng/ml): 0.96
